Source: US20190029257A1, “APPLICATION FOR HERBICIDE-TOLERANT PROTEIN” (BEIJING DABEINONG TECHNOLOGY GROUP CO., LTD., priority 2016, published 2019)

Key:
[1] = system: Gm chloroplastic ALT-3-01 soybean plants; experiment: Halosulfuron-methyl tolerance of soybean plants (damage degree); type: in vivo; design: dose or concentration left out as unconfirmed; conditions: for Average damage % 3 DAT: 3 days after spraying; for Average damage % 7 DAT: 7 days after spraying; for Average damage % 14 DAT: 14 days after spraying; for Average damage % 21 DAT: 21 days after spraying
Excerpt: The herbicide tolerance effects of Gm cytoplasmic ALT-1-01 soybean plants, Gm chloroplastic ALT-1-01 soybean plants, Gm cytoplasmic ALT-2-01 soybean plants, Gm chloroplastic ALT-2-01 soybean plants, Gm cytoplasmic ALT-3-01 soybean plants, Gm chloroplastic ALT-3-01 soybean plants and wild-type soybean plants on halosulfuron-methyl were detected (at seedling stage), respectively.
Gm cytoplasmic ALT-1-01 soybean plants, Gm chloroplastic ALT-1-01 soybean plants, Gm cytoplasmic ALT-2-01 soybean plants, Gm chloroplastic ALT-2-01 soybean plants, Gm cytoplasmic ALT-3-01 soybean plants, Gm chloroplastic ALT-3-01 soybean plants and wild-type soybean plants were respectively taken and sprayed with halosulfuron-methyl ([…]) and a blank solvent (water). The damage degree caused by the herbicide was measured for each plant according to the leaf curl degree and the growth point damage degree 3 days after spraying (3 DAT), 7 days after spraying (7 DAT), 14 days after spraying (14 DAT) and 21 days after spraying (21 DAT), respectively: considering conditions of leaves being flat as the untreated plants and growth points being intact as having a damage degree of 0%; considering conditions of veins being locally browned, new leaves being malformed and plant growth being slow as having a damage degree of 50%; and considering conditions of veins being purple to whole plant being dead and growth points being browned and dry as having a damage degree of 100%. There were 2 strains in Gm cytoplasmic ALT-1-01 soybean plants in total (S1 and S2), 2 strains in Gm chloroplastic ALT-1-01 soybean plants in total (S3 and S4), 2 strains in Gm cytoplasmic ALT-2-01 soybean plants in total (S5 and S6), 2 strains in Gm chloroplastic ALT-2-01 soybean plants in total (S7 and S8), 2 strains in Gm cytoplasmic ALT-3-01 soybean plants in total (S9 and S10), 2 strains in Gm chloroplastic ALT-3-01 soybean plants in total (S11 and S12), and 1 strain in wild-type soybean plants (CK1) in total; and 10-15 plants were selected from each strain and tested.

[2] = system: all the transformed Arabidopsis thaliana T1 plants (ALT-1, ALT-2 and ALT-3); experiment: Herbicide tolerance of Arabidopsis thaliana T1 plants; type: in vivo; conditions: 34 g ai/ha; summary of Table 1 and FIG. 4
Excerpt: At cytoplasmic ALT-1-01 T1 plants, At chloroplastic ALT-1-01 T1 plants, At cytoplasmic ALT-2-01 T1 plants, At chloroplastic ALT-2-01 T1 plants, At cytoplasmic ALT-3-01 T1 plants, At chloroplastic ALT-3-01 T1 plants and wild-type Arabidopsis thaliana plants were sprayed with halosulfuron-methyl (34 g ai/ha, 1-fold field concentration) and a blank solvent (water), respectively. Plants were counted for the resistance situations 14 days after spraying: those having a consistent growth status with the blank solvent (water) group after 14 days were classified as highly resistant plants, those having a bolting height less than ½ of that of the blank solvent (water) group after 14 days were classified as moderately resistant plants, those still not capable of bolting after 14 days were classified as poorly resistant plants, and those dead after 14 days were classified as non-resistant plants. Since each Arabidopsis thaliana T1 plant was an independent transformation event, a significant difference in individual T1 responses could be expected at a given dose.
At cytoplasmic ALT-1-01 T1 plants, At chloroplastic ALT-1-01 T1 plants, At cytoplasmic ALT-2-01 T1 plants, At chloroplastic ALT-2-01 T1 plants, At cytoplasmic ALT-3-01 T1 plants, At chloroplastic ALT-3-01 T1 plants and wild-type Arabidopsis thaliana plants in Example 4 were sprayed with iodosulfuron-methyl (10 g ai/ha, 1-fold field concentration), mesosulfuron (14 g ai/ha, 1-fold field concentration) and oxasulfuron (60 g ai/ha, 1-fold field concentration), respectively, in addition to halosulfuron-methyl (34 g ai/ha, 1-fold field concentration) and the blank solvent (water). Plants were counted for the resistance situation 14 days after spraying: those having a consistent growth status with the blank solvent (water) group after 14 days were classified as highly resistant plants, those having a bolting height less than ½ of that of the blank solvent (water) group after 14 days were classified as moderately resistant plants, those still not capable of bolting after 14 days were classified as poorly resistant plants, and those dead after 14 days were classified as non-resistant plants. Since each Arabidopsis thaliana T1 plant was an independent transformation event, a significant difference in individual T1 responses could be expected at a given dose.

COC(=O)c1c(Cl)nn(C)c1S(=O)(=O)NC(=O)Nc1nc(OC)cc(OC)n1 [halosulfuron-methyl, 3-chlorine-5-(4,6-dimethoxypyrimidine-2-aminocarbonylaminosulphonyl)-1-methylpyrazole-4-carboxylic acid methyl ester]
Average damage % 3 DAT ([1]; strain S11): 10% | Average damage % 7 DAT ([1]; strain S11): 4% | Average damage % 14 DAT ([1]; strain S11): 0% | Average damage % 21 DAT ([1]; strain S11): 0% | Average damage % 3 DAT ([1]; strain S12): 11% | Average damage % 7 DAT ([1]; strain S12): 5% | Average damage % 14 DAT ([1]; strain S12): 0% | Average damage % 21 DAT ([1]; strain S12): 0% | tolerance of the plants to the herbicide [2]: conferred halosulfuron-methyl herbicide tolerance to individual Arabidopsis thaliana plants
